Source: patent publication US6759544B2, “Antimicrobially active acesulfame complexes, process for their preparation and their use” (Nutrinova Nutrition Specialties & Food Ingredients GmbH, priority 2001, dated 2004)

What was measured:
Type in all cases: cell-based
[1] = system: Staphylococcus aureus (ATCC 6538); assay: Minimum inhibitory concentration, Staphylococcus aureus
Description: (§1) Method for Determining the Minimum Inhibitory Concentration
(§2) The samples, to determine the minimum inhibitory concentration, are dissolved in WSH (water of standardized hardness) and mixed with twice-concentrated Caso-Bouillon pH 5.5. After inoculation with the test organisms, the solutions of the test organisms Streptococcus mutans (ATCC 25175) and Actinomyces odontolyticus (ATCC 17982) were overlayered with paraffin and incubated for a period of three days at a temperature of 37° C.
(§3) The solution of the test organism Staphylococcus aureus (ATCC 6538) was incubated for two days at 37° C. The samples were then streaked onto Caso agar and incubated for two days at 37° C.

[2] = system: Streptococcus mutans (ATCC 25175); assay: Minimum inhibitory concentration, Streptococcus mutans
Description: as §1, §2, §3

[3] = system: Actinomyces odontolyticus (ATCC 17982); assay: Minimum inhibitory concentration, Actinomyces odontolyticus
Description: as §1, §2, §3

[4] = Staphylococcus aureus (ATCC 6538), Caso-Bouillon pH 5.5, two days at 37° C.
[5] = Streptococcus mutans (ATCC 25175), Caso-Bouillon pH 5.5, overlayered with paraffin, three days at 37° C.
[6] = Actinomyces odontolyticus (ATCC 17982), Caso-Bouillon pH 5.5, overlayered with paraffin, three days at 37° C.

SMILES	Minimum inhibitory concentration ([1]; pH 5.5) [mM]	Minimum inhibitory concentration ([2]; pH 5.5) [mM]	Minimum inhibitory concentration ([3]; pH 5.5) [mM]	other results
CC1=CC(=O)[N]([Zn]([OH])([OH])[N]2C(=O)C=C(C)OS2(=O)=O)S(=O)(=O)O1 [Zn(acesulfame)2.2H2O, Acesulfame-Zinc Complex]	–	–	–	MIC ([1]; ATCC6538, 48 h, Staphylococcus aureus (ATCC 6538), Caso-Bouillon pH 5.5, two days at 37° C.): 23.7 mM; MIC ([2]; ATCC25175, 72 h, Streptococcus mutans (ATCC 25175), Caso-Bouillon pH 5.5, overlayered with paraffin, three days at 37° C.): 23.7 mM; MIC ([3]; Schaalia odontolytica, ATCC17982, 72 h, Actinomyces odontolyticus (ATCC 17982), Caso-Bouillon pH 5.5, overlayered with paraffin, three days at 37° C.): 11.8 mM
CC1=CC(=O)[N-]S(=O)(=O)O1.CCCCCCCCCCCCCCCC[n+]1ccccc1 [Cetylpyridinium(acesulfame), Acesulfame-Cetylpyridinium Complex]	0.10703	0.00214	0.00214	–
O=[N+]([O-])[O-].[Ag+] [AgNO3, silver(I) nitrate]	–	–	–	Minimum inhibitory concentration [1, 4]: 5.91 mM; Minimum inhibitory concentration [2, 5]: 5.91 mM; Minimum inhibitory concentration [3, 6]: 5.91 mM
CCCCCCCCCCCCCCCC[n+]1ccccc1.O.[Cl-] [Cetylpridinium chloride.H2O, cetylpyridinium chloride.H2O]	0.13966	0.00279	0.00279	–
O.O.O.O.O.O.O.O=S(=O)([O-])[O-].[Zn+2] [ZnSO4.7H2O, zinc(II) sulfate heptahydrate]	17.5	17.5	17.5	–
CC1=CC(=O)[N-]S(=O)(=O)O1.[Ag+] [Ag(acesulfame).0.25H2O, Acesulfame-Silver Complex]	–	–	–	Minimum inhibitory concentration [1, 4]: 3.65 mM; Minimum inhibitory concentration [2, 5]: 18.31 mM; Minimum inhibitory concentration [3, 6]: 18.31 mM
O.O.O.O.O.O=S(=O)([O-])[O-].[Cu+2] [CuSO4.5H2O, copper(II) sulfate pentahydrate]	20.13	4.01	20.13	–
